# Laboratory results reported in patent US20250223559A1, “AXIOLOID: A STEM CELL-BASED MODEL OF HUMAN AXIAL DEVELOPMENT” (KYOTO UNIVERSITY, priority 2022, published 2025).
# Tested on: human Axioloids
# Assay: Immunofluorescence and HCR in situ expression patterns in Axioloids
# Assay type: cell-based
# Protocol: Human Axioloid samples were washed twice with 0.1% BSA (Nacalai) in PBS (Takara), fixed with 4% paraformaldehyde (PFA) for 20 minutes at room temperature and then washed again twice with 0.1% BSA in PBS. Samples were permeabilized in 0.2% Triton X-100 (Nacalai) in PBS for 15 minutes at room temperature and blocked in 5% BSA in PBS for 1 hour at room temperature. Axioloid samples were stained with primary antibodies diluted in 0.5% BSA in PBST (1% Tween-20 (Nacalai) in PBS) for overnight (12-16 hours) at 4° C. Primary antibodies used in this study were: goat anti-TBXT (TBXT) (1:500, R&D Systems), mouse anti-Fibronectin (1:10, DSHB), mouse anti-Laminin (γ1) (1:10, DSHB), rabbit anti-MEOX1 (1:500, ATLAS), mouse anti-N-Cadherin (1:200, BD Biosciences), mouse anti-PKCζ (1:100, Santa Cruz), rabbit anti-SOX2 (1:400, Cell Signaling), and goat anti-TBX6 (1:500, R&D Systems). Samples were then washed twice with PBST and stained with secondary antibodies and Alexa Fluor 647 conjugated Phalloidin (Invitrogen) diluted in 0.5% BSA in PBST for 3 hours at room temperature, washed twice with PBST and counterstained with DAPI for 5 min at room temperature. […]
compound,measurement,setting,value
"CC1=C(/C=C/C(C)=C/C=C/C(C)=C/C=O)C(C)(C)CCC1 [RAL, all trans-Retinal]",expression gradients of FGF8 and WNT3a (HCR),MG+RAL,still showed clear expression gradients of FGF8 and WNT3a
same,"protein and gene expression patterns (TBXT, MEOX1, UNCX, TBX18)","MG-embedded, RA or RAL treated",largely unchanged or even improved
